# Data as given in ChEMBL document CHEMBL1909588, “Synthesis and in vitro antitubercular evaluation of novel sansanmycin derivatives” (2011).
# System: Mycobacterium tuberculosis
# Assay: Antitubercular activity against rifampicin and isoniazid-resistant Mycobacterium tuberculosis isolate 2199 after 24 hrs by microplate alamar blue assay
# Assay type: functional
# Conditions: isolate 2199, 24 h
smiles,measurement,value
NNC(=O)c1ccncc1 [ISONIAZID],MIC,40 µg/mL
CO[C@H]1/C=C/O[C@@]2(C)Oc3c(C)c(O)c4c(O)c(c(/C=N/N5CCN(C)CC5)c(O)c4c3C2=O)NC(=O)/C(C)=C\C=C\[C@H](C)[C@H](O)[C@@H](C)[C@@H](O)[C@@H](C)[C@H](OC(C)=O)[C@@H]1C [RIFAMPIN],MIC,20 µg/mL
CSCCC(NC(=O)NC(Cc1c[nH]c2ccccc12)C(=O)O)C(=O)NC(C(=O)N/C=C1\C[C@@H](O)[C@H](n2ccc(=O)[nH]c2=O)O1)C(C)N(C)C(=O)C(N)Cc1cccc(O)c1 (some centres undefined) [SANSANMYCIN A],MIC,32 µg/mL
CSCCC(NC(=O)NC(Cc1c[nH]c2ccccc12)C(=O)O)C(=O)NC(C(=O)N/C=C1\C[C@@H](O)[C@H](n2ccc(=O)[nH]c2=O)O1)C(C)N(C)C(=O)C(Cc1cccc(O)c1)NC(C)C (some centres undefined),MIC,8 µg/mL
